Results published in ChEMBL document CHEMBL1132957, “Design of potent dicyclic (4-10/5-8) gonadotropin releasing hormone (GnRH) antagonists” (J Med Chem, 2000).
Each block holds one compound with its values, some of them ahead of it. Activity calls are given as the source filed them. The calls are words filed in the database; no cut-off is given here. Positions of bridges follow the written chain, without caps; N, C: chain ends. Non-standard residues stand in square brackets, D forms with d. Residues, ends and D or L forms follow the SMILES beside them. dPhe(4-F) = N[C@H](Cc1ccc(F)cc1)C(=O)O; d2Nal = N[C@H](Cc1ccc2ccccc2c1)C(=O)O; Dap = NC[C@H](N)C(=O)O

Tests used:
[1] = biological target: T1, Gonadotropin-releasing hormone receptor (Rattus norvegicus, UniProt P30969); experiment: Competitive radioligand binding assay, in human HEK293 cells stably transfected with the rat Gonadotropin-releasing hormone receptor; format: cell-based
T1 sequence (P30969 whole entry): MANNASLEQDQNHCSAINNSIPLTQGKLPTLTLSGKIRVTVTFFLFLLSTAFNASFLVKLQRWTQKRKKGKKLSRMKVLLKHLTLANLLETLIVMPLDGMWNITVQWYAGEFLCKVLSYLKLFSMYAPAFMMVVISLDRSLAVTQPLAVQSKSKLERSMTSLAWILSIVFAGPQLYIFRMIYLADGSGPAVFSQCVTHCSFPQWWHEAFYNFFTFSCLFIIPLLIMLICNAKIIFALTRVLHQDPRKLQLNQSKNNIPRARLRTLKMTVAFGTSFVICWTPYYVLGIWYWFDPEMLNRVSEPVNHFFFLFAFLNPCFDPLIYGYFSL

Rattus norvegicus [2] = experiment: Evaluated for the ovulation effects in the rat by administering the drug at the doses (100 ug); 1/8; format: functional, organism-based
Rattus norvegicus [3] = experiment: Evaluated for the ovulation effects in the rat by administering the drug at the doses (25 ug); 2/5; format: functional, organism-based
Rattus norvegicus [4] = experiment: Evaluated for the ovulation effects in the rat by administering the drug at the doses (50 ug); 2/8; format: functional, organism-based
Rattus norvegicus [5] = experiment: Evaluated for the ovulation effects in the rat by administering the drug at the doses (5 ug); 2/6; format: functional, organism-based
Rattus norvegicus [6] = experiment: Evaluated for the ovulation effects in the rat by administering the drug at the doses (2.5 ug); 3/3; format: functional, organism-based
Rattus norvegicus [7] = experiment: Evaluated for the ovulation effects in the rat by administering the drug at the doses (100 ug); 5/5; format: functional, organism-based
Rattus norvegicus [8] = experiment: Evaluated for the ovulation effects in the rat by administering the drug at the doses (500 ug); 3/8; format: functional, organism-based
Rattus norvegicus [9] = experiment: Evaluated for the ovulation effects in the rat by administering the drug at the doses (250 ug); 0/6; format: functional, organism-based
Rattus norvegicus [10] = experiment: Evaluated for the ovulation effects in the rat by administering the drug at the doses (250 ug); 1/3
Rattus norvegicus [11] = experiment: Evaluated for the ovulation effects in the rat by administering the drug at the doses (10 ug); 3/3; format: functional, organism-based
Rattus norvegicus [12] = experiment: Evaluated for the ovulation effects in the rat by administering the drug at the doses (1.0 ug); 4/4; format: functional, organism-based
Rattus norvegicus [13] = experiment: Evaluated for the ovulation effects in the rat by administering the drug at the doses (2.5 ug); 3/8; format: functional, organism-based
Rattus norvegicus [14] = experiment: Evaluated for the ovulation effects in the rat by administering the drug at the doses (25 ug); 4/4; format: functional, organism-based

SMILES: CC(=O)N[C@H](Cc1ccc2ccccc2c1)C(=O)N[C@H](Cc1ccc(Cl)cc1)C(=O)N[C@H](Cc1cccnc1)C(=O)N[C@H]1CC(=O)NC[C@@H](C(N)=O)NC(=O)[C@@H]2CCCN2C(=O)[C@@H]2CCCCNC(=O)CC[C@H](NC1=O)C(=O)N[C@H](Cc1ccc3ccccc3c1)C(=O)N[C@@H](CC(C)C)C(=O)N2
- Ki [1]: 1.3 nM
- Activity (Rattus norvegicus [2]): Active
- Activity (Rattus norvegicus [3]): Weak activity
- Activity (Rattus norvegicus [4]): Weak activity

SMILES: CC(=O)N[C@H](Cc1ccc2ccccc2c1)C(=O)N[C@H](Cc1ccc(F)cc1)C(=O)N[C@H](Cc1c[nH]c2ccccc12)C(=O)N[C@H]1CC(=O)NC[C@@H](C(N)=O)NC(=O)[C@@H]2CCCN2C(=O)[C@H](CCCN=C(N)N)NC(=O)[C@H](CC(C)C)NC(=O)[C@@H](CCCN=C(N)N)NC(=O)[C@H](Cc2ccc(O)cc2)NC1=O (Ac-[d2Nal][dPhe(4-F)][dW]DY[dR]LRP[Dap]-NH2; lactam 4-10)
- Ki ([1]; hek293): 0.36 nM

SMILES: CC(=O)N[C@H](Cc1ccc2ccccc2c1)C(=O)N[C@H](Cc1ccc(F)cc1)C(=O)N[C@H](Cc1c[nH]c2ccccc12)C(=O)N[C@H]1CCC(=O)NC(C(N)=O)NC(=O)[C@@H]2CCCN2C(=O)[C@H](CCCNC(=N)N)NC(=O)[C@H](CC(C)C)NC(=O)[C@@H](CCCNC(=N)N)NC(=O)[C@H](Cc2ccc(O)cc2)NC1=O (some centres not stated)
- Ki ([1]; hek293): 1.3 nM

SMILES: CC(=O)N[C@H](Cc1ccc2ccccc2c1)C(=O)N[C@H](Cc1ccc(Cl)cc1)C(=O)N[C@H](Cc1cccnc1)C(=O)N[C@H]1CC(=O)NC[C@@H](C(N)=O)NC(=O)[C@@H]2CCCN2C(=O)[C@@H]2CCNC(=O)[C@H](CCCN=C(N)N)NC(=O)CC[C@H](NC1=O)C(=O)N[C@H](Cc1cccnc1)C(=O)N[C@@H](CC(C)C)C(=O)N2
- Activity (Rattus norvegicus [9]): Active
- Ki [1]: 0.59 nM
- Activity (Rattus norvegicus [10]): Weak activity
- Activity (Rattus norvegicus [11]): inactive

SMILES: CC(=O)N[C@H](Cc1ccc2ccccc2c1)C(=O)N[C@H](Cc1ccc(Cl)cc1)C(=O)N[C@H](Cc1cccnc1)C(=O)N[C@H]1CC(=O)NC[C@@H](C(N)=O)NC(=O)[C@@H]2CCCN2C(=O)[C@@H]2CCNC(=O)[C@H](Cc3ccccc3)NC(=O)C[C@H](NC1=O)C(=O)N[C@H](CCCN=C(N)N)C(=O)N[C@@H](CC(C)C)C(=O)N2
- Ki [1]: 12 nM
- Activity (Rattus norvegicus [14]): inactive

The next lines start with results.

- Ki [1]: 0.75 nM
SMILES: CC(=O)N[C@H](Cc1ccc2ccccc2c1)C(=O)N[C@H](Cc1ccc(Cl)cc1)C(=O)N[C@H](Cc1cccnc1)C(=O)N[C@H]1CC(=O)NC[C@@H](C(N)=O)NC(=O)[C@@H]2CCCN2C(=O)[C@@H]2CCCNC(=O)[C@H](Cc3ccccc3)NC(=O)C[C@H](NC1=O)C(=O)N[C@H](CCCN=C(N)N)C(=O)N[C@@H](CC(C)C)C(=O)N2
- Activity (Rattus norvegicus [5]): Weak activity
- Activity (Rattus norvegicus [6]): inactive

- Ki ([1]; hek293): 10 nM
SMILES: CC(=O)N[C@H](Cc1ccc2ccccc2c1)C(=O)N[C@H](Cc1ccc(F)cc1)C(=O)N[C@H](Cc1c[nH]c2ccccc12)C(=O)N[C@H]1CC(=O)NCC[C@@H](C(N)=O)NC(=O)[C@@H]2CCCN2C(=O)[C@H](CCCNC(=N)N)NC(=O)[C@H](CC(C)C)NC(=O)[C@@H](CCCNC(=N)N)NC(=O)[C@H](Cc2ccc(O)cc2)NC1=O

- Ki [1]: 120 nM
SMILES: CC(=O)N[C@H](Cc1ccc2ccccc2c1)C(=O)N[C@H](Cc1ccc(Cl)cc1)C(=O)N[C@H](Cc1cccnc1)C(=O)N[C@H]1CC(=O)NC[C@@H](C(N)=O)NC(=O)[C@@H]2CCCN2C(=O)[C@@H]2CCNC(=O)[C@@H](Cc3ccccc3)NC(=O)CC[C@H](NC1=O)C(=O)N[C@H](CCCN=C(N)N)C(=O)N[C@@H](CC(C)C)C(=O)N2
- Activity (Rattus norvegicus [7]): inactive
- Activity (Rattus norvegicus [8]): Weak activity

- Ki [1]: 0.1 nM
SMILES: CC(=O)N[C@H](Cc1ccc2ccccc2c1)C(=O)N[C@H](Cc1ccc(Cl)cc1)C(=O)N[C@H](Cc1cccnc1)C(=O)N[C@H]1CC(=O)NC[C@@H](C(N)=O)NC(=O)[C@@H]2CCCN2C(=O)[C@@H]2CCNC(=O)[C@H](Cc3c[nH]cn3)NC(=O)CC[C@H](NC1=O)C(=O)N[C@H](CCCN=C(N)N)C(=O)N[C@@H](CC(C)C)C(=O)N2
- Activity (Rattus norvegicus [12]): inactive
- Activity (Rattus norvegicus [13]): Weak activity
